# Assay results taken from patent publication US9408859B2, “Pharmaceutical compositions useful for preventing and treating cancer” (Mitotech SA, priority 2007, dated 2016).
# Where “and” joins values, the source holds several entries; their conditions need not be identical. Equal values may be shown once.
# Assays:
# Format in all cases: in vivo, mouse
# Lung Lewis's carcinoma = test: SkQ1 combined with doxorubicin on growth of lung Lewis's carcinoma; settings: regime per group
# Experimental: For development of oncological diseases joint therapy that combines SkQ1 and chemotherapy, a study on SkQ1 influence on single doxorubicin injection efficiency was performed (one of the mechanisms of the preparation is activation of oxidative processes in normal and cancerous cells). SkQ1 was introduced before, simultaneously, or after introduction of doxorubicin in maximum dose of 500 nM/kg (in order to block oxidative mechanism of doxorubicin influence).
# Doxorubicin was applied before, after, and during the course of SkQ1.
# [1] = tested on: A-431 human skin cancer heteroxenografts; test: Anti-tumoral activity on A-431 heteroxenografts (tumor volume, T/C, histology)
# Experimental: Before administration, SkQ1 was diluted with sterile physiological saline up to 0.5 μM and 5.0 μM. The preparation was injected intraperitoneally as single doses of 5.0 nM/kg and 50.0 nM/kg, 0.2 ml/mouse.
# (1973) 51:1417-1423. • Morphology: epithelial. • Cultivation method: monolayer. • Cultivation conditions: 10% bovine embryonal serum DMEM culture. • Procedure of seeding: cell removal using 0.25% trypsin, 0.02% versene (3:7), ratio of seeding 1:3 1:6, optimal density 2.04.0×10^4 cell per sm^2 cryopreservation media, 10% DMSO, 1.0×10^6 cells/ml per ampoule. • Viability after cryopreservation: 83% (trypan blue staining on zero passage) • Contamination control: no bacteria, fungi or micoplasma detected • Genetic identity control: karyological, enzymatic (LDH, G6PDH) analysis. • Karyology: 2n-46, chromosome variability limit 5777, chromosome modal number 6871 • Tumorigenicity: tumorigenic in HIV mice and in mice treated with antithymocyte serum. • Other features: large number of receptors to epidermal growth factor. • Application area: growth factors study, cell biology. • Collection: ATCC CRL 1555; ECACC 85090402; INC RAS.
# A-431 cells were grown on RPMI-1640 medium that contained 10% calf serum and 1 mM glutamine. Cells were transferred to a flask at a ratio of 1:2 or 1:3 from full monolayer. The medium was changed every 2 to 3 days. A cultivated cell suspension was then used to engraft HIV mice.
# The experiment was performed using HIV female mice Balb/c nude at the age 8 to 9.5 weeks. All mice were raised in GU RONC. Mice were managed in specialized virus-free chamber with sterile aeration, fed with sterile briquette food and water under normalized temperature condition and moisture.
# Cells of A-431 cell line were hypodermically implanted only once in number 1.7-1×10^6 per mouse in 0.2 ml of RPMI-1640 nutrition medium.
# Anti-tumoral effect estimation was carried out using common rate T/C (Treatment/Control), evaluated as a ratio of average tumor volumes in treated and control groups given in percents. Rate was taken evaluated using the following formula T/C %=[…],
# where Vo and Vk are the mean volumes of tumor in treated and control groups thereof. Thus, in the control group, T/C=100%. Mean volume was evaluated using the following formula: Vm (mm^3)=axbxc. T/C≦42% was taken as a minimal efficiency criterion (Anticancer Drug Development Guide (1997) (ed. B. A. Teicher) Humana Press, Totowa, N.J., pp. 101-125). To analyze the speed of growth (standarcy value), a ratio of mean tumor relative to the first one taken was determined as follows.
# Evaluation started after the appearance of a palpable tumor (9 days after implantation). After that multiple tumor volume evaluations were performed until the 20th day after transplantation. The first evaluation of treated groups was performed during treatment, and the next three evaluations were performed during 6 days after end of the treatment. Tumor evaluations were stopped on the 21st to the 24th day after the first mouse died in three experiments.
# Mice were sacrificed by ether anesthesia overdose. An autopsy was performed, and tumors were then extracted and assayed histologically and immunohistochemically. Tumors were fixed in 10% formaldehyde and set into paraffin wax. Histological assays were carried out on tumor histological sections, stained with hematoxylin and eosin. The number of microvessels was examined by standard immunological method using antibodies to CD34 antigen. Presence of vessel mimicry was estimated by tumor section staining with Schiffs reagent.
# HCT116 p53+/+ = test: Growth of human large intestine carcinoma xenografts, wild type p53; settings: SkQ1 in drinking water, 0.5-50 nM/kg/day, 4 weeks
# Excerpt: Two human large intestine carcinoma cell sub-lines that differ by p53 status—wild type cells (HCT116 p53+/+)) and cells with inactivated p53 (HCT116 p53−/−)) cell line cultivation see in Bunz et al. (1998) Science, 282:1497-1500; see model description in Sablina et al. (2003), J. Biol. Chem., 278:27362-27371. One million cells were hypodermically implanted into thymus-deprived mice. Mice in each group were divided into 4 sub-groups of 10 mice: one group received water to drink; one group received water with SkQ1 (0.01 nmol) per mouse per day (0.5 nM/kg/day); one group received water with SkQ1 (0.1 nmol) per mouse per day (5 nM/kg/day); one group received water with SkQ1 (1 nmol) per mouse per day (50 nM/kg/day).
# The size of the tumors was evaluated every 3 days. After 4 weeks mice were sacrificed and the tumors removed and fixed for histological assay.
# Ehrlich's carcinoma = test: Anti-tumoral effect on hypodermic Ehrlich's carcinoma; settings: 0.5 nM/kg ip
# Experimental: The experiment was performed according to the methods described in Example 2.
# Injection of the preparation started 48 hours after transplantation and proceeded during 5, 10, 15, and 30 days. For tumor treatment efficiency, estimations of tumor volumes were evaluated many times after end of short courses or once after end of the 30-day course. […] The results were then statistically calculated using confidence intervals of mean values of compared values, difference stated reliable if p<0.05.
# [2] = Experiment 1 material, Group 2, 5.0 nM/kg
smiles,measurement,setting,value
CC1=C(C)C(=O)C(CCCCCCCCCC[P+](c2ccccc2)(c2ccccc2)c2ccccc2)=CC1=O [SkQ1],"TGS %, by tumor volume","Lung Lewis's carcinoma; Day 7, SkQ 500 nmol 0.2 ml/mouse per os x5, DOX 7 mg/kg ip",33%
same,"TGS %, by tumor volume","Lung Lewis's carcinoma; Day 7, SkQ 500 nmol 0.2 ml/mouse per os x5, DOX 7 mg/kg ip, listed as SkQ",33^ %
same,"TGS %, by tumor volume",Lung Lewis's carcinoma; Day 10,42%
same,"TGS %, by tumor volume",Lung Lewis's carcinoma; Day 14,48%
same,"TGS %, by tumor volume",Lung Lewis's carcinoma; Day 17,28%
same,"TGS %, by tumor volume",Lung Lewis's carcinoma; Day 21,30%
same,T/C,"[1]; Experiment 1, 5.0 nM/kg ip daily day 1-14, 14th day",74%
same,T/C,"[1]; Experiment 1, 5.0 nM/kg ip daily day 1-14, 17th day",67%
same,T/C,"[1]; Experiment 1, 5.0 nM/kg ip daily day 1-14, 20th day",73%
same,T/C,"[1]; Experiment 1, 5.0 nM/kg ip daily, 9th day (after 8 injections)",63%
same,T/C,"[1]; Experiment 1, 50.0 nM/kg ip daily day 1-14, 9th day",159%
same,T/C,"[1]; Experiment 1, 50.0 nM/kg ip daily day 1-14, 14th day",160%
same,T/C,"[1]; Experiment 1, 50.0 nM/kg ip daily day 1-14, 17th day",134%
same,T/C,"[1]; Experiment 1, 50.0 nM/kg ip daily day 1-14, 20th day",146%
same,Tumor differentiation (histological assay),"[1]; Experiment 1 material, 5.0 nM/kg, vs control",partial tumor differentiation
same,"Number of microvessels in tumors (CD34, hot spots)","[1]; Experiment 1 material, 23rd day, 9th day after end of treatment, three groups (control, 5.0 and 50.0 nM/kg)",did not statistically differ
same,Microvessel diameter,[1]; [2],smaller diameter than in the control group
same,Signs of vasculogenic mimicry (PAS staining),[1]; [2],no such signs were seen
same,T/C,"[1]; Experiment 2, 5.0 nM/kg ip daily day 1-8, 8th day",61%
same,T/C,"[1]; Experiment 2, 5.0 nM/kg ip daily day 1-8, 14th day",72%
same,T/C,"[1]; Experiment 2, 5.0 nM/kg ip daily day 1-8, 17th day",96%
same,T/C,"[1]; Experiment 2, 5.0 nM/kg ip daily day 1-8, 24th day",101%
same,T/C,"[1]; Experiment 3, 5.0 nM/kg ip daily day 1-14, immediately after the end of the treatment",41% and 42%
same,inhibition of growth,"[1]; long-termed injection, single doses 5.0 nM/kg, in some cases",50%
same,Tumor growth vs control group receiving pure water,HCT116 p53+/+,suppression of tumor growth
same,tumor volume,"Ehrlich's carcinoma; 5-day course, days 2-7, day 7 after transplantation",251 mm³
same,TGS%,"Ehrlich's carcinoma; 5-day course, day 7",40%
same,TGS%,"Ehrlich's carcinoma; 5-day course, day 14",23%
same,tumor volume,"Ehrlich's carcinoma; 5-day course, day 14",547 mm³
same,TGS%,"Ehrlich's carcinoma; 5-day course, day 21",16%
same,tumor volume,"Ehrlich's carcinoma; 5-day course, day 21",1000 mm³
same,tumor volume,"Ehrlich's carcinoma; 10-day course, days 2-13, day 7",228 mm³
same,TGS%,"Ehrlich's carcinoma; 10-day course, day 7",45%
same,TGS%,"Ehrlich's carcinoma; 10-day course, day 14",34%
same,tumor volume,"Ehrlich's carcinoma; 10-day course, day 14",474 mm³
same,TGS%,"Ehrlich's carcinoma; 10-day course, day 21",28%
same,tumor volume,"Ehrlich's carcinoma; 10-day course, day 21",853 mm³
same,tumor volume,"Ehrlich's carcinoma; 15-day course, days 2-16, day 7",259 mm³
same,TGS%,"Ehrlich's carcinoma; 15-day course, day 7",38%
same,TGS%,"Ehrlich's carcinoma; 15-day course, day 14",36%
same,tumor volume,"Ehrlich's carcinoma; 15-day course, day 14",459 mm³
same,TGS%,"Ehrlich's carcinoma; 15-day course, day 21",29%
same,tumor volume,"Ehrlich's carcinoma; 15-day course, day 21",838 mm³
